Assay results from patent US11655246B2, “Aminothiazole compounds as inhibitors of CTPS1” (STEP PHARMA S.A.S., priority 2017, dated 2023).
Counter-ions that a name gives are not always drawn. Like-named read-outs stand apart in the source and are kept apart here.

Target: T1, human CTPS1 (Homo sapiens, UniProt P17812)
T1 construct: purchased Proteros biostructures GmbH
T1 sequence (P17812 1-591): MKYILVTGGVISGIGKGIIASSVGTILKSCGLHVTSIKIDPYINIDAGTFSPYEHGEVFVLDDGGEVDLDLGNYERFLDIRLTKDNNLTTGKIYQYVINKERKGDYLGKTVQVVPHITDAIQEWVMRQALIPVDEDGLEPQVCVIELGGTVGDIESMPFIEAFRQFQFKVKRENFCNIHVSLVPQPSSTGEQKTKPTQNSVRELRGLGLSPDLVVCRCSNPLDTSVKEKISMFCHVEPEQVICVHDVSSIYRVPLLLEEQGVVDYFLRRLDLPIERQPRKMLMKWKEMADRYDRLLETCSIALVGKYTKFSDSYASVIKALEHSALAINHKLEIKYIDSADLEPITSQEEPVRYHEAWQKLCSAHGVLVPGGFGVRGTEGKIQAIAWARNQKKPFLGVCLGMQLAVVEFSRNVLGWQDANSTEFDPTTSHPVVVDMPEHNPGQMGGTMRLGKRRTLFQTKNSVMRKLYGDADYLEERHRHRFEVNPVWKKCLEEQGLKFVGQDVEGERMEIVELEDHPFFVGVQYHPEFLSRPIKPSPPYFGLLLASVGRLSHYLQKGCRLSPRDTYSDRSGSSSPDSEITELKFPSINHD
Experiment: Human CTPS1 enzyme inhibition (ADP-Glo Max assay)
Type: biochemical
Conditions: read-out: CTPS1 (Human CTPS1 Enzyme Inhibition data grouped by potency range)
Summary of the method: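 ADP-Glo Max luminescence detection of ATP-to-ADP conversion by the enzyme, in 50 mM Tris, 10 mM MgCl2, 0.01% Tween-20, pH 8.0, with 2 mM L-cysteine added fresh. Enzyme preincubated with compound 10 minutes at 25° C. Percentage inhibition calculated per compound concentration.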

[1] = Table 18, additional potency data, 25° C.

Compound | IC50 [1] | IC50 (Table 17, 25° C.)
CC(C)c1cncc(-c2ccc(NC(=O)C(C)(C)c3csc(NS(=O)(=O)C4CC4)n3)nc2)n1 [T336, 2-(2-(cyclopropanesulfonamido)thiazol-4-yl)-N-(5-(6-isopropylpyrazin-2-yl)pyridin-2-yl)-2-methylpropanamide] | 100 to 1000 nM | –
CCOc1cncc(-c2ccc(NC(=O)C(CC)c3csc(NS(=O)(=O)C4CC4)n3)c(OC(F)(F)F)c2)n1 (centres unmarked) [T442] | < 100 nM | –
O=C(Nc1ccc(-c2cncc(C(F)(F)F)n2)cc1)C1(c2csc(NS(=O)(=O)C3CC3)n2)CC1 [T397, 1-(2-(cyclopropanesulfonamido)thiazol-4-yl)-N-(4-(6-(trifluoromethyl)pyrazin-2-yl)phenyl)cyclopropane-1-carboxamide] | 100 to 1000 nM | –
CCC(C(=O)Nc1ccc(-c2ccccc2)cn1)c1csc(NS(=O)(=O)C2CC2)n1 (centres unmarked) [T181] | – | 100 to 1000 nM
CC(C)Oc1cncc(-c2ccc(NC(=O)C(C)(C)c3csc(NS(=O)(=O)C4CC4)n3)c(F)c2)n1 [T357, 2-(2-(cyclopropanesulfonamido)thiazol-4-yl)-N-(2-fluoro-4-(6-isopropoxypyrazin-2-yl)phenyl)-2-methylpropanamide] | < 100 nM | –
CCOc1cncc(-c2ccc(NC(=O)C(OC)c3csc(NS(=O)(=O)C4CC4)n3)c(F)c2)n1 (centres unmarked) [T409, 2-(2-(cyclopropanesulfonamido)thiazol-4-yl)-N-(4-(6-ethoxypyrazin-2-yl)-2-fluorophenyl)-2-methoxyacetamide] | < 100 nM | –
COCCC(C(=O)Nc1ccc(-c2cncc(Cl)c2)cc1)c1csc(NS(=O)(=O)C2CC2)n1 (centres unmarked) [T71] | – | < 100 nM
CCC(C(=O)Nc1ccc(-c2cncc(OC(F)F)c2)cn1)c1csc(NS(=O)(=O)C2CC2)n1 (centres unmarked) [T186] | – | < 100 nM
N#Cc1cncc(-c2ccc(NC(=O)C3CCc4sc(NS(=O)(=O)C5CC5)nc43)cc2)c1 (centres unmarked) [T217] | – | < 100 nM
O=C(Nc1ccc(-c2cncc(F)c2)cc1)C1CCc2sc(NS(=O)(=O)C3CC3)nc21 (centres unmarked) [T218] | – | 100 to 1000 nM
CCC(C(=O)Nc1ccc(-c2cncc(C(F)(F)F)n2)cn1)c1csc(NS(=O)(=O)C2CC2)n1 (single isomer, unassigned) [T414, 2-(2-(cyclopropanesulfonamido)thiazol-4-yl)-N-(5-(6-(trifluoromethyl)pyrazin-2-yl)pyridin-2-yl)butanamide] | < 100 nM | –
CCC(C(=O)Nc1ccc(-c2cncc(Cl)n2)cc1)c1csc(NS(=O)(=O)C2CC2)n1 (centres unmarked) [T78, N-(4-(6-chloropyrazin-2-yl)phenyl)-2-(2-(cyclopropanesulfonamido)thiazol-4-yl)butanamide] | – | < 100 nM
CCOc1cncc(-c2ccc(NC(=O)C(C)(C)c3csc(NS(C)(=O)=O)n3)nc2)n1 [T390, N-(5-(6-ethoxypyrazin-2-yl)pyridin-2-yl)-2-methyl-2-(2-(methylsulfonamido)thiazol-4-yl)propanamide] | < 100 nM | –
CCOc1cncc(-c2ccc(NC(=O)C(C)(C)c3csc(NS(=O)(=O)C4CC4)n3)cc2C)n1 [T371, 2-(2-(cyclopropanesulfonamido)thiazol-4-yl)-N-(4-(6-ethoxypyrazin-2-yl)-3-methylphenyl)-2-methylpropanamide] | < 100 nM | –
CCC(C(=O)Nc1ccc(-c2cncc(OCC(F)(F)F)n2)cn1)c1csc(NS(=O)(=O)C2CC2)n1 (centres unmarked) [T182] | – | < 100 nM
CCC(C(=O)Nc1ccc(-c2cccnc2)cc1Cl)c1csc(NS(=O)(=O)C2CC2)n1 (centres unmarked) [T221] | – | < 100 nM
CCC(C(=O)Nc1ccc(-c2cncc(Cl)c2)cc1)c1csc(NS(=O)(=O)C2CC2)n1 (single isomer, unassigned) [T10, N-(4-(5-chloropyridin-3-yl)phenyl)-2-(2-(cyclopropanesulfonamido)thiazol-4-yl)butanamide.HCl] | – | < 100 nM
CCNc1cncc(-c2ccc(NC(=O)C(CC)c3csc(NS(=O)(=O)C4CC4)n3)cc2)n1 (centres unmarked) [T444, 2-(2-(Cyclopropanesulfonamido)thiazol-4-yl)-N-(4-(6-(ethylamino)pyrazin-2-yl)phenyl)butanamide] | < 100 nM | –
CCC(C(=O)Nc1ccc(-c2cncc(C#N)c2)cc1)c1csc(NS(=O)(=O)C2CC2)n1 (centres unmarked) [T194] | – | < 100 nM
CC(C)C(C(=O)Nc1ccc(-c2cncnc2)cc1)c1csc(NS(=O)(=O)C2CC2)n1 (centres unmarked) [T11, 2-(2-(cyclopropanesulfonamido)thiazol-4-yl)-3-methyl-N-(4-(pyrimidin-5-yl)phenyl)butanamide] | – | 100 to 1000 nM
C#Cc1cncc(-c2ccc(NC(=O)C(CC)c3csc(NS(=O)(=O)C4CC4)n3)cc2)n1 (centres unmarked) [T22, 2-(2-(cyclopropanesulfonamido)thiazol-4-yl)-N-(4-(6-ethynylpyrazin-2-yl)phenyl)butanamide] | – | < 100 nM

Compound | IC50 [1] | IC50 (Table 17, 25° C.)
CCS(=O)(=O)Nc1nc(C(C)(C)C(=O)Nc2ccc(-c3cncc(C(F)(F)F)n3)cc2)cs1 [T387, 2-(2-(ethylsulfonamido)thiazol-4-yl)-2-methyl-N-(4-(6-(trifluoromethyl)pyrazin-2-yl)phenyl)propanamide] | < 100 nM | –
CC(C)(C(=O)Nc1ccc(-c2cncc(C(F)(F)F)n2)cc1C(F)(F)F)c1csc(NS(=O)(=O)C2CC2)n1 [T346, 2-(2-(cyclopropanesulfonamido)thiazol-4-yl)-2-methyl-N-(2-(trifluoromethyl)-4-(6-(trifluoromethyl)pyrazin-2-yl)phenyl)propanamide] | 100 to 1000 nM | –
CCC(C(=O)Nc1ccc(-c2ccnnc2)cc1)c1csc(NS(=O)(=O)C2CC2)n1 (centres unmarked) [T69] | – | 1000 to 10000 nM
CCOc1cncc(-c2ccc(NC(=O)C(CC)c3csc(NS(=O)(=O)C4CC4)n3)cc2)n1 (centres unmarked) [T189] | – | < 100 nM
CC(C)(C(=O)Nc1ccc(-c2cncc(Cl)c2)cc1C(F)(F)F)c1csc(NS(=O)(=O)C2CC2)n1 [T343, N-(4-(5-chloropyridin-3-yl)-2-(trifluoromethyl)phenyl)-2-(2-(cyclopropanesulfonamido)thiazol-4-yl)-2-methylpropanamide] | < 100 nM | –
COCCC(C(=O)Nc1ccc(-c2cncc(C(F)(F)F)n2)cc1F)c1csc(NS(=O)(=O)C2CC2)n1 (centres unmarked) [T399, 2-(2-(cyclopropanesulfonamido)thiazol-4-yl)-N-(2-fluoro-4-(6-(trifluoromethyl)pyrazin-2-yl)phenyl)-4-methoxybutanamide] | < 100 nM | –
CC(C)C(C(=O)Nc1ccc(-c2cccnc2)cc1)c1csc(NS(=O)(=O)C2CC2)n1 (racemic) [T12, 2-(2-(cyclopropanesulfonamido)thiazol-4-yl)-3-methyl-N-(4-(pyridin-3-yl)phenyl)butanamide] | – | 100 to 1000 nM
COC(C(=O)Nc1ccc(-c2cncc(C(F)(F)F)n2)cc1F)c1csc(NS(=O)(=O)C2CC2)n1 (centres unmarked) [T408, 2-(2-(cyclopropanesulfonamido)thiazol-4-yl)-N-(2-fluoro-4-(6-(trifluoromethyl)pyrazin-2-yl)phenyl)-2-methoxyacetamide] | < 100 nM | –
CCC(C(=O)Nc1ccc(-c2cncc(C(C)(C)OC)n2)cc1F)c1csc(NS(=O)(=O)C2CC2)n1 (centres unmarked) [T403, 2-(2-(cyclopropanesulfonamido)thiazol-4-yl)-N-(2-fluoro-4-(6-(2-methoxypropan-2-yl)pyrazin-2-yl)phenyl)butanamide] | 100 to 1000 nM | –
CCOc1cncc(-c2ccc(NC(=O)C(OC)c3csc(NS(=O)(=O)C4CC4)n3)c(C#N)c2)n1 (centres unmarked) [T451] | < 100 nM | –
CCOc1cncc(-c2ccc(NC(=O)C3(c4csc(NS(=O)(=O)C5CC5)n4)CC3)cc2)n1 [T398, 1-(2-(cyclopropanesulfonamido)thiazol-4-yl)-N-(4-(6-ethoxypyrazin-2-yl)phenyl)cyclopropane-1-carboxamide] | < 100 nM | –
CCC(C(=O)Nc1ccc(-c2cnccn2)cc1)c1csc(NS(=O)(=O)C2CC2)n1 (centres unmarked) [T70] | – | 100 to 1000 nM
COCCS(=O)(=O)Nc1nc(C(C)(C)C(=O)Nc2ccc(-c3cncc(C(F)(F)F)n3)cn2)cs1 [T332, 2-(2-((2-methoxyethyl)sulfonamido)thiazol-4-yl)-2-methyl-N-(5-(6-(trifluoromethyl)pyrazin-2-yl)pyridin-2-yl)propanamide] | 100 to 1000 nM | –
CC(C)(C(=O)Nc1ccc(-c2ncccn2)cc1)c1csc(NS(=O)(=O)C2CC2)n1 [T4, 2-(2-(cyclopropanesulfonamido)thiazol-4-yl)-2-methyl-N-(4-(pyrimidin-2-yl)phenyl)propanamide] | – | 1000 to 10000 nM
COC(C(=O)Nc1ccc(-c2cncc(C(F)(F)F)n2)cc1F)c1csc(NS(C)(=O)=O)n1 (centres unmarked) [T452] | < 100 nM | –
CCOc1cncc(-c2ccc(NC(=O)C(CC)c3csc(NS(=O)(=O)C4CC4)n3)c(OC)c2)n1 (centres unmarked) [T443] | < 100 nM | –
COCCC(C(=O)Nc1ccc(-c2cncc(OC)c2)cn1)c1csc(NS(=O)(=O)C2CC2)n1 (centres unmarked) [T171] | – | < 100 nM
CCCOc1cncc(-c2ccc(NC(=O)C(CC)c3csc(NS(=O)(=O)C4CC4)n3)cc2)n1 (centres unmarked) [T75] | – | < 100 nM
CCC(C(=O)Nc1ccc(-c2cncc(C(F)(F)F)n2)cc1F)c1csc(NS(=O)(=O)C2CC2)n1 (centres unmarked) [T197] | – | < 100 nM
CCS(=O)(=O)Nc1nc(C(C)(C)C(=O)Nc2ccc(-c3cncc(C(F)(F)F)c3)cn2)cs1 [T380, 2-(2-(ethylsulfonamido)thiazol-4-yl)-2-methyl-N-(5′-(trifluoromethyl)-[3,3′-bipyridin]-6-yl)propanamide] | < 100 nM | –
